Data on 7 compounds can be found in article PMC9225712, “Rational design of biodegradable sulphonamide candidates treating septicaemia by synergistic dual inhibition of COX-2/PGE2 axis and DHPS enzyme” (Journal of Enzyme Inhibition and Medicinal Chemistry, 2022).

In one assay the test system is PGE2. Put plainly: Estimation of rat plasma PGE2. The following applies: po 10 µmol/kg b.wt., 8 h after carrageenan.
The test system of assay [1] is carrageenan-induced paw edoema. Put plainly: Carrageenan-induced paw edoema in mice. Background: The carrageenan paw model is a standard test of acute inflammation.
The target of the next assay is T1, ovine COX-1 (Ovis aries, UniProt P05979).
T1 construct: purchased Cayman Chemicals Inc. 560131
T1 sequence (P05979 25-600): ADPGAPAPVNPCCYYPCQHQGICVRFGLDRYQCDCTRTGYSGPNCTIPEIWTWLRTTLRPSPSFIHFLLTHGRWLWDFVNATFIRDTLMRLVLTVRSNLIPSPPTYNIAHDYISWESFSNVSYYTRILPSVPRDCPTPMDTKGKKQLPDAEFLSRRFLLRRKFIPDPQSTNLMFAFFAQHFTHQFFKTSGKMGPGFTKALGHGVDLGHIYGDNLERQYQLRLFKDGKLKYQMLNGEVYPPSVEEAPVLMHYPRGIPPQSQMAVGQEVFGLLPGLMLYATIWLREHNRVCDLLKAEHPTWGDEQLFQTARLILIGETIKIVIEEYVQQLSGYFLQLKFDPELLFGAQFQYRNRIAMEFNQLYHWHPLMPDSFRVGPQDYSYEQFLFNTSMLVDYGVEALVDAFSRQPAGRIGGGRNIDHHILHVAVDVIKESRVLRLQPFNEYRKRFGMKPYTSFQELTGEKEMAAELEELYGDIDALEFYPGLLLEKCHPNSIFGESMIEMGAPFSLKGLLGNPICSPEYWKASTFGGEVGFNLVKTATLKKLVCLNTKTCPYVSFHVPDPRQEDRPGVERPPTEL
Put plainly: In vitro COX-1 enzymatic assay (Cayman kit 560131). Type of assay: biochemical. Particulars: Mean ± SEM of triplicate determinations.

Assay [2] concerns Salmonella typhi (RCMB 0100104). Put plainly: Inhibition zone, agar cup diffusion. Type of assay: cell-based. Particulars: Salmonella enterica, 24 h, read-out: inhibition zones (IZ) S. typhi.
The test system of assay [3] is Shigella dysenteriae (RCMB 0100542). Put plainly: Inhibition zone, agar cup diffusion. It counts as cell-based. The following applies: RCMB0100542, 24 h, read-out: inhibition zones (IZ) S. dysenteriae.
The subject of assay [4] is Staphylococcus aureus (RCMB 0100183). Put plainly: Inhibition zone, agar cup diffusion. The following applies: RCMB0100183, 24 h, read-out: inhibition zones (IZ) S. aureus.
In assay [5] the test system is Staphylococcus epidermidis (RCMB 0100183). Put plainly: Inhibition zone, agar cup diffusion. The following applies: RCMB0100183, 24 h, read-out: inhibition zones (IZ) S. epidermidis.
The test system of assay [6] is Streptococcus mutans (RCMB 0100172). Put plainly: Inhibition zone, agar cup diffusion. Particulars: RCMB0100172, 24 h, read-out: inhibition zones (IZ) S. mutans.
Assay [7] concerns Bacillus subtilis (RCMB 0100162). Put plainly: Inhibition zone, agar cup diffusion. Particulars: RCMB0100162, 24 h, read-out: inhibition zones (IZ) B. subtillis.
The subject of assay [8] is Pseudomonas aeruginosa (RCMB 0100243). Put plainly: Inhibition zone, agar cup diffusion. The following applies: RCMB0100243, 24 h, read-out: inhibition zones (IZ) P.aeruginosa.
The test system of assay [9] is Escherichia coli (RCMB 010052). Put plainly: Inhibition zone, agar cup diffusion. The following applies: RCMB010052, 24 h, read-out: inhibition zones (IZ) E.coli.
In assay [10] the test system is Proteus vulgaris (RCMB 010085). Put plainly: Inhibition zone, agar cup diffusion. The following applies: RCMB010085, 24 h, read-out: inhibition zones (IZ) P. vulgaris.
In the next assay the target is T2, human recombinant COX-2 (Homo sapiens, UniProt P35354).
T2 sequence (P35354 18-604): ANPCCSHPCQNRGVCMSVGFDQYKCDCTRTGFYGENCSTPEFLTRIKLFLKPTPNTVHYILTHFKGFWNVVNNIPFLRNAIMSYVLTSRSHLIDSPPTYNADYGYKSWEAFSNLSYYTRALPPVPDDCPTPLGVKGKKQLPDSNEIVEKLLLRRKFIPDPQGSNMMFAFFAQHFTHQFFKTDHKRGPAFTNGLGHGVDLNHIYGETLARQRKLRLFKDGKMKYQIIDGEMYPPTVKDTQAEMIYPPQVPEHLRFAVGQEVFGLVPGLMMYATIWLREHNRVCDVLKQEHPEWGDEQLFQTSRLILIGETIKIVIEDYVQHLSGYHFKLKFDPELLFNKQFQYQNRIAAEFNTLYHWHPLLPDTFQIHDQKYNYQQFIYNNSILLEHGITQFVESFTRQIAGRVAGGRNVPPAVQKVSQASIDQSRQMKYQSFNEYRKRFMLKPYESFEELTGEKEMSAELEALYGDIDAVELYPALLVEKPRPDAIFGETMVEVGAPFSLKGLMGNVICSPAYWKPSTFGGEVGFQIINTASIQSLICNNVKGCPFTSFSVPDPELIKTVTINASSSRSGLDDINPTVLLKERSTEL
Put plainly: In vitro COX-2 enzymatic assay (Cayman kit 560131). Particulars: for SI COX-1/COX-2: COX-2 selectivity index: COX-1 IC50/COX-2 IC50.

Assay [11] has as its system Gram-positive and Gram-negative bacteria. Put plainly: In vitro antibacterial screening, whole panel. It counts as cell-based. The following applies: whole bacterial panel, result in words.

Marks after values point to notes of the source that are not given here.

Take `Cc1ccc(-c2cc(C(F)(F)F)nn2-c2ccc(S(N)(=O)=O)cc2)cc1` [Celecoxib, reference compound]: the “% inhibition of PGE2-production” value in the assay with PGE2 (rat serum) is on record as 71.18%. The PGE2 serum conc. in the assay on PGE2 (rat, Mean ± SEM, n = 5) was 380.636 ± 5.53 pg/mL. In assay [1] (Mus musculus, 8 h, read-out: ED50 (95% confidence level)), the ED50 was found to be 13.1 µmol/kg. In addition, in [1] (mice, po 10 µmol/kg b.wt., 0 h (before carrageenan), Mean ± SEM, n = 5), the “Thickness of edoema 0h” value came out at 0.62 ± 0.01 mm. Moreover, the “percentage anti-inflammatory activity (AI%) 2h” value in [1] (mice, po 10 µmol/kg b.wt., 2 h) was “(6.32%)^d”. For the same compound, the “Thickness of edoema 2h” value in assay [1] (mice, po 10 µmol/kg b.wt., 2 h after carrageenan, Mean ± SEM, n = 5) is 0.89 ± 0.01^c mm. The “percentage anti-inflammatory activity (AI%) 4h” value in assay [1] (mice, po 10 µmol/kg b.wt., 4 h) is “(45.14%)”. Further, in assay [1] (mice, po 10 µmol/kg b.wt., 4 h after carrageenan, Mean ± SEM, n = 5), the “Thickness of edoema 4h” value was 0.79 ± 0.01^c mm. In addition, the “percentage anti-inflammatory activity (AI%) 6h” value in assay [1] (mice, po 10 µmol/kg b.wt., 6 h) is on record as “(64.39%)”. The “Thickness of edoema 6h” value in [1] (mice, po 10 µmol/kg b.wt., 6 h after carrageenan, Mean ± SEM, n = 5) is listed as 0.73 ± 0.03^c mm. The “percentage anti-inflammatory activity (AI%) 8h” value is on record as “(70.87%)” in assay [1] (mice, po 10 µmol/kg b.wt., 8 h) and 70.87% in [1] (mice, po 10 µmol/kg b.wt., 8 h, listed as celecoxib). The “Thickness of edoema 8h” value in assay [1] (mice, po 10 µmol/kg b.wt., 8 h after carrageenan, Mean ± SEM, n = 5) is given as 0.67 ± 0.02^c mm.

Turning to `O=C(NCc1ccccc1)c1cc(/N=N/c2ccc(S(=O)(=O)Nc3nccs3)cc2)ccc1O` [Compound 5f, N-Benzyl-2-hydroxy-5-((4-(N-(thiazol-2-yl)sulfamoyl)phenyl)diazenyl) benzamide], the IC50 stood at 9.7 ± 0.06 µM against ovine COX-1 and 0.11 ± 0.003 µM on human recombinant COX-2. Further, the zone of inhibition at 1000 µg/mL in assay [2] turned out to be 16 mm; in assay [3] it was 25 mm; in assay [4], 24 mm; in assay [5], 36 mm; in assay [6] it was 27 mm; in assay [7], 17 mm. The zone of inhibition at 1000 µg/mL in assay [8] was determined as 16 mm; in [9] it was 16 mm; in assay [10], 17 mm. Besides, the “SI COX-1/COX-2” value at human recombinant COX-2 was 88.2.

`O=C(NCc1ccccc1)c1cc(/N=N/c2ccc(S(=O)(=O)Nc3ncccn3)cc2)ccc1O` [Compound 5g, N-Benzyl-2-hydroxy-5-((4-(N-(pyrimidin-2-yl)sulfamoyl)phenyl)diazenyl) benzamide]: the results for the IC50 against ovine COX-1 and on human recombinant COX-2 were 10.5 ± 0.08 µM and 0.1 ± 0.0003 µM, respectively. Further, the zone of inhibition at 1000 µg/mL in assay [2] is 13 mm; in assay [3] it was 26 mm; in assay [4] it was 26 mm; in assay [5], 32 mm; in [6] it was 30 mm; in assay [7], 20 mm. Besides, the zone of inhibition at 1000 µg/mL in assay [8] is 14 mm; in assay [9] it was 16 mm; in assay [10], 17 mm. The “SI COX-1/COX-2” value on human recombinant COX-2 is reported as 109.4.

Consider `NS(=O)(=O)c1ccc(/N=N/c2ccc(O)c(C(=O)N3CCCCC3)c2)cc1` [Compound 5h, 4-((4-Hydroxy-3-(piperidine-1-carbonyl)phenyl)diazenyl) benzenesulfonamide], for which the IC50 against ovine COX-1 was 8.2 ± 0.12 µM; on human recombinant COX-2, 0.14 µM. For the same compound, the zone of inhibition at 1000 µg/mL in assay [2] was 18 mm; in assay [3], 24 mm; in [4], 22 mm; in assay [5], 29 mm; in assay [6] it was 29 mm; in [7], 20 mm. For the same compound, the figures for the zone of inhibition at 1000 µg/mL in assay [8], in [9] and in assay [10] were 16 mm, 14 mm and 19 mm, respectively. For the same compound, at human recombinant COX-2, the “SI COX-1/COX-2” value was 58.6.

`O=C(c1cc(/N=N/c2ccc(S(=O)(=O)Nc3nccs3)cc2)ccc1O)N1CCCCC1` [Compound 5i, 4-((4-Hydroxy-3-(piperidine-1-carbonyl)phenyl)diazenyl)-N-(thiazol-2-yl) benzenesulfonamide]: the IC50 at ovine COX-1 worked out at 11.2 ± 0.11 µM; at human recombinant COX-2, 0.08 ± 0.0008 µM. Also, the zone of inhibition at 1000 µg/mL stood at 15 mm in assay [2]; 22 mm in [3]; 25 mm in assay [4]; 30 mm in assay [5]; 31 mm in assay [6]; 19 mm in [7]. For the same compound, the figures for the zone of inhibition at 1000 µg/mL in [8], in [9] and in [10] were 18 mm, 16 mm and 18 mm, respectively. In assay [11], the “in vitro antibacterial activity” value was “weak in vitro antibacterial activity”. In addition, on human recombinant COX-2, the “SI COX-1/COX-2” value turned out to be 136.6.

For the compound `NS(=O)(=O)c1ccc(/N=N/c2ccc(O)c(C(=O)N3CCOCC3)c2)cc1` [Compound 5l, 4-((4-Hydroxy-3-(morpholine-4-carbonyl)phenyl)diazenyl) benzenesulfonamide], the IC50 against ovine COX-1 stood at 10.2 ± 0.08 µM; at human recombinant COX-2, 0.08 ± 0.001 µM. The zone of inhibition at 1000 µg/mL in assay [2] came to 17 mm; in assay [3], 26 mm; in assay [4], 18 mm; in assay [5] it was 32 mm; in assay [6], 26 mm; in assay [7] it was 20 mm. Moreover, the zone of inhibition at 1000 µg/mL in assay [8] amounted to 14 mm; in assay [9], 14 mm; in assay [10], 19 mm. The “SI COX-1/COX-2” value on human recombinant COX-2 turned out to be 134.2.

`O=C(O)c1cc(/N=N/c2ccc(S(=O)(=O)Nc3ccccn3)cc2)ccc1O` [Sulfasalazine, reference compound]: the ED50 in the assay on S. aureus Smith (Staphylococcus aureus, in Mus musculus, read-out: ED50 against S. aureus infection) came out at 314 µmol/kg; in the assay on E. coli C11 (Escherichia coli, C11, in Mus musculus, read-out: ED50 against E.coli infection) it was 419 µmol/kg. For the same compound, in the assay with S. aureus Smith (mice, challenge dose 9.5x10^6 CFU/mouse ip, intragastric once a day for 7 days, survival), the “ED50, protective effect against bacteremic infection, Staphylococcus aureus” value is given as 313.7 µmol/kg/day. The “ED50, protective effect against bacteremic infection, Escherichia coli” value in the assay with E. coli C11 (mice, challenge dose 7.1x10^3 CFU/mouse ip, intragastric once a day for 7 days, survival) is given as 419.2 µmol/kg/day.

One may read the ED50 as the dose at which the effect has come halfway, by size or by number of responders. By IC50 is commonly meant the concentration that inhibits the measured activity by half.
